For four molecules, survival and Activity results are on record in ChEMBL document CHEMBL3244077, “Sycnthesis of quinazoline analogues of folic acid modified at postion 10” (J Med Chem, 1977).

Data set [1] has as its system L1210. Nature of the data set: Antitumor activity against mouse L1210 cells allografted in mouse assessed as increase in host survival at 150 mg/kg, ip administered as single dose on day 1 following tumor implantation. The conditions noted are these: 24 h, route intraperitoneal. It counts as functional.
Data set [2] relates to Mus musculus. The data set can be described thus: Acute toxicity in mouse […] with mouse L1210 cells at 150 mg/kg, ip administered as single dose on day 1 following tumor implantation. It counts as organism-based. Details: dose 150 mg/kg, route intraperitoneal. The note with it: in vivo.
The subject of data set [3] is L1210. The data set can be described thus: Antitumor activity against mouse L1210 cells allografted in mouse assessed as increase in host survival at 100 mg/kg, ip administered as single dose on day 1 following tumor implantation. It is filed as functional. The conditions noted are these: 24 h, route intraperitoneal.
Data set [4] has as its system L1210. The data set can be described thus: Antitumor activity against mouse L1210 cells allografted in mouse assessed as increase in host survival at 75 mg/kg, ip administered as single dose on day 1 following tumor implantation. It is filed as functional. The conditions noted are these: 24 h, route intraperitoneal.
The test system of data set [5] is L1210. The data set can be described thus: Antitumor activity against mouse L1210 cells allografted in mouse assessed as increase in host survival at 200 mg/kg, ip administered as single dose on day 1 following tumor implantation. It is filed as functional. The conditions noted are these: 24 h, route intraperitoneal.
The test system of data set [6] is L1210. Nature of the data set: Antitumor activity against mouse L1210 cells allografted in mouse assessed as increase in host survival at 50 mg/kg, ip administered as single dose on day 1 following tumor implantation. It is filed as functional. The note with it: 24 h, route intraperitoneal.
In data set [7] the test system is L1210. The data set can be described thus: Antitumor activity against mouse L1210 cells allografted in mouse assessed as increase in host survival at 25 mg/kg, ip administered as single dose on day 1 following tumor implantation. The conditions noted are these: 24 h, route intraperitoneal. It counts as functional.

Take `Nc1nc(O)c2cc(CSc3ccc(C(=O)N[C@@H](CCC(=O)O)C(=O)O)cc3)ccc2n1`: the survival at 150 mg/kg in data set [1] was 22%. Moreover, the Activity result in data set [2] is “Non-toxic”. Further, in data set [3], the survival at 100 mg/kg was 9%.

`Nc1nc(O)c2cc(COc3ccc(C(=O)N[C@@H](CCC(=O)O)C(=O)O)cc3)ccc2n1`: in data set [4], the survival at 75 mg/kg amounted to 6%. Besides, in data set [1], the survival at 150 mg/kg was determined as 28%. The Activity result in data set [2] is “Non-toxic”. Further, the survival at 200 mg/kg in data set [5] is 14%.

In the case of `Nc1nc(O)c2cc(CCc3ccc(C(=O)N[C@@H](CCC(=O)O)C(=O)O)cc3)ccc2n1`, the survival at 75 mg/kg in data set [4] was 18%. Besides, the survival at 150 mg/kg in data set [1] was found to be 23%. Moreover, the Activity entry in data set [2] was “Non-toxic”. For the same molecule, the survival at 50 mg/kg in data set [6] came out at 14%.

Take `CN(Cc1cnc2nc(N)nc(N)c2n1)c1ccc(C(=O)N[C@@H](CCC(=O)O)C(=O)O)cc1` [METHOTREXATE]: in data set [4], the survival at 75 mg/kg was determined as 48%. For the same molecule, the survival at 25 mg/kg in data set [7] amounted to 68%. Besides, the survival at 50 mg/kg in data set [6] was found to be 61%. In data set [3], the survival at 100 mg/kg was found to be 81%.
